Patent US11001590B2, “Pyrazolopyrimidine derivatives” (BAYER ANIMAL HEALTH GMBH, priority 2016, dated 2021)

Legend:
[1] = log P by HPLC on reversed phase columns (Method L0; [a] acidic, [b] neutral range); details: for log P: HPLC on reversed phase columns (Method L0)
Description: Calibration was done with straight-chain alkan-2-ones (with 3 to 16 carbon atoms) with known log P values (measurement of log P values using retention times with linear interpolation between successive alkanones). Lambda-max-values were determined using UV-spectra from 200 nm to 400 nm and the peak values of the chromatographic signals.

C. elegans Slo-1a = C. elegans Slo-1a (Caenorhabditis elegans, UniProt Q95V25); assay: In vitro assay 1: C. elegans Slo-1a, action at a recombinant C. elegans CHO cell line (membrane potential measurement); details: for pE50: CHO cells expressing C. elegans Slo-1a, voltage sensitive dye, FLIPR Tetra, negative decadic logarithm of EC50
Sequence of C. elegans Slo-1a (Q95V25 whole entry): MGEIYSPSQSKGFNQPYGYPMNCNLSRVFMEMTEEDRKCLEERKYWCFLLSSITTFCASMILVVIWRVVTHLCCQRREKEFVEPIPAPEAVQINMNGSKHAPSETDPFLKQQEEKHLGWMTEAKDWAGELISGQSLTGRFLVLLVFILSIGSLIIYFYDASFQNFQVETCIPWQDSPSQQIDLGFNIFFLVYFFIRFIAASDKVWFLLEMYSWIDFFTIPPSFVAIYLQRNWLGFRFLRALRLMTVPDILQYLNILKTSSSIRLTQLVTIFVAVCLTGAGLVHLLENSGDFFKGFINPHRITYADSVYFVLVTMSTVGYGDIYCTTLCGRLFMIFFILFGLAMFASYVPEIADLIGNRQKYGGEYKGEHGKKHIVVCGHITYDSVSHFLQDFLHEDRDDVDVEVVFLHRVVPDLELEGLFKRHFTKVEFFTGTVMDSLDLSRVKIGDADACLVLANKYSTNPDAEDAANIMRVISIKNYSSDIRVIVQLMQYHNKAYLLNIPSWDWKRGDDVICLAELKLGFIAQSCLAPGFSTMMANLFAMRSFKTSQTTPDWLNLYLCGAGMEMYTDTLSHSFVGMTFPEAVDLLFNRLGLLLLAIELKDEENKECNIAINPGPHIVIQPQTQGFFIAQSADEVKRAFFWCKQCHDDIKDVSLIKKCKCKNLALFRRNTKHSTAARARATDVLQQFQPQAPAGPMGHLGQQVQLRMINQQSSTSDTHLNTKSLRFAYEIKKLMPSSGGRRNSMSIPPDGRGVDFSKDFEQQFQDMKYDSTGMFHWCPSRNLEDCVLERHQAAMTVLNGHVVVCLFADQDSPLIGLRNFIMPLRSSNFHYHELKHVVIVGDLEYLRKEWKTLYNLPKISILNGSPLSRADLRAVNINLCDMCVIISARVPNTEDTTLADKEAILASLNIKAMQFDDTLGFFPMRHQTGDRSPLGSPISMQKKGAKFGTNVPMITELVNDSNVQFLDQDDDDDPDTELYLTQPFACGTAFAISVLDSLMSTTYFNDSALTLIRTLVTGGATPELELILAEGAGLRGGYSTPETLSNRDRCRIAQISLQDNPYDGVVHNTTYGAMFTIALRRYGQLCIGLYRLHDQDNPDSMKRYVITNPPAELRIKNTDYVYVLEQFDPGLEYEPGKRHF
Description: In Vitro Assay 1: C. Eleqans Slo-La—Action at a Recombinant C. elegans Cell Line
Cells were cultured at 37° C. and 5% CO2 in MEMalpha with Gutamax I (Invitrogen, Nr.: 32571), supplemented with 10% (v/v) heat inactivated fetal bovine serum (Invitrogen, Nr.: 10500), G418 (1 mg/ml, Invitrogen, Nr.: 10131). Cells were detached using Accutase (Sigma, Nr.: A6964).
Membrane Potential Measurements
Laboratory compound testing was performed on 384-well microtiter plates (MTPs, Greiner, Nr.: 781092). 8000 cells/well were plated onto 384-well MTPs and cultured for 20 to 24 hours at 37° C. and 5% CO2. After removal of the cell culture medium, the cells were washed once with tyrode (150 mM NaCl, 0.3 mM KCl, 2 mM CaCl2, 1 mM MgCl2, 0.8 mM NaH2PO4, 5 mM Glucose, 28 mM Hepes, pH 7.4) and then loaded with the voltage sensitive dye of the Membrane Potential Assay Kit diluted in tyrode for 1 h at room temperature.
After starting the measurement of fluorescence using a FLIPR Tetra (Molecular Devices, Exc. 510-545 nm, Emm. 565-625 nm), test compounds were added followed by the addition of KCl tyrode (final assay concentration: 70 mM KCl, 2 mM CaCl2, 1 mM MgCl2, 0.8 mM NaH2PO4, 5 mM Glucose, 28 mM Hepes, pH 7.4, including the voltage sensitive dye). The measurement was completed after 7 minutes.

[2] = test system: Dirofilaria immitis microfilariae; assay: In vitro assay 3: Dirofilaria immitis microfilariae (DIROIM L1), motility; details: 72 h, reduction of motility vs negative control, 72 h incubation
[3] = last column of Table 1, column head not shown

SMILES	chromatographic logP [1]	EC50 (C. elegans Slo-1a) [nM]	EC50 [2] [µg/mL]	log P [1]	pE50 (C. elegans Slo-1a)	log P [1, 3]
Cc1nn2c(C(C)C)c(C(=O)N[C@H]3CCCc4ccccc43)cnc2c1-c1cccc(C(F)(F)F)c1 [Example 3]	5.59	50.1	< 10	–	–	–
Cc1c(C(=O)N[C@H]2CCc3ccccc32)cnc2c(-c3ccccc3Cl)c(Cl)nn12 [Example 74]	3.99	39.8	< 1	–	–	–
Cc1c(C(=O)N[C@H]2CCCc3ccccc32)cnc2c(-c3ccccc3Cl)c(Cl)nn12 [Example 77]	4.26	63.1	< 10	–	–	–
CC(C)c1c(C(=O)N[C@H]2CCCc3ccccc32)cnc2c(-c3ccccc3Cl)c(Cl)nn12 [Example 78]	5.07	31.6	< 0.1	–	–	–
Cc1nn2c(C(C)C)c(C(=O)N[C@H]3CCCc4ccccc43)cnc2c1-c1ccccc1F [Example 94]	4.72	15.8	< 0.1	–	–	–
Cc1nn2c(C(C)C)c(C(=O)N[C@H]3CCCc4ccccc43)cnc2c1-c1ccc(F)c(F)c1 [Example 102]	5.14	63.1	< 10	–	–	–
Cc1nn2c(C(C)C)c(C(=O)N[C@H]3CCCc4ccccc43)cnc2c1-c1cc(F)ccc1F [Example 115]	4.89	15.8	< 0.1	–	–	–
Cc1nn2c(C(C)C)c(C(=O)N[C@H]3CCOc4ccccc43)cnc2c1-c1ccc(Cl)cc1 [Example 118]	4.88	15.8	< 0.1	–	–	–
Cc1nn2c(C(C)C)c(C(=O)N[C@H]3CCc4ccccc43)cnc2c1-c1cc(Cl)c(Cl)c(Cl)c1 [Example 122]	6.58	12.6	< 0.1	–	–	–
Cc1nn2c(C(C)C)c(C(=O)N[C@H]3CCCc4ccccc43)cnc2c1-c1cc(Cl)c(Cl)c(Cl)c1 [Example 125]	6.86	25.1	< 1	–	–	–
CC(C)c1c(C(=O)N[C@H]2CCc3ccccc32)cnc2c(-c3c(F)cc(F)cc3F)c(C(F)(F)F)nn12 [Example 133]	5.01	79.4	< 1	–	–	–
CC(C)c1c(C(=O)N[C@H]2CCc3ccccc32)cnc2c(-c3c(F)cccc3F)c(C(F)(F)F)nn12 [Example 135]	4.81	126	< 0.1	–	–	–
CC(C)c1c(C(=O)N[C@H]2CCOc3ccccc32)cnc2c(-c3cccc(OC(F)(F)F)c3)c(C(F)(F)F)nn12 [Example 137]	5.31	25.1	< 10	–	–	–
CC(C)c1c(C(=O)N[C@H]2CCCc3ccccc32)cnc2c(-c3c(F)cccc3F)c(C(F)(F)F)nn12 [Example 138]	5.06	316	< 10	–	–	–
CC(C)c1c(C(=O)N[C@H]2CCOc3ccccc32)cnc2c(-c3c(F)cccc3F)c(C(F)(F)F)nn12 [Example 139]	4.56	126	< 0.1	–	–	–
CC(C)c1c(C(=O)N[C@H]2CCOc3ccccc32)cnc2c(-c3c(F)cc(F)cc3F)c(C(F)(F)F)nn12 [Example 140]	4.77	79.4	< 0.1	–	–	–
Cc1nn2c(C(C)C)c(C(=O)N[C@H]3CCOc4ccccc43)cnc2c1-c1ccc(Cl)c(Cl)c1 [Example 230]	–	–	–	5.48	8.1	–
COc1ccc(F)c(-c2c(C)nn3c(C(C)C)c(C(=O)N[C@H]4CCOc5ccccc54)cnc23)c1Cl [Example 233]	–	–	–	4.23	8.1	–
COc1c(F)cc(F)c(-c2c(C)nn3c(C(C)C)c(C(=O)N[C@H]4CCOc5ccccc54)cnc23)c1F [Example 235]	–	–	–	4.38	9.2	–
CC(C)c1c(C(=O)N[C@H]2CCOc3ccccc32)cnc2c(-c3cccc(F)c3F)c(Cl)nn12 [Example 281, 2-Chloro-N—((S)-chroman-4-yl)-3-(2,3-difluorophenyl)-7-isopropylpyrazolo[1,5-a]pyrimidine-6-carboxamide]	–	5.01	< 0.1	–	–	–
Cc1nn2c(C(C)C)c(C(=O)N[C@H]3CCc4ccccc43)cnc2c1-c1cccc(C#N)c1 [Example 291]	4.31	50.1	–	–	–	–
Cc1nn2c(C(C)C)c(C(=O)N[C@H]3CCc4ccccc43)cnc2c1-c1cc(F)cc(C(F)(F)F)c1 [Example 292]	5.6	39.8	–	–	–	–
Cc1nn2c(C(C)C)c(C(=O)N[C@H]3CCc4ccccc43)cnc2c1-c1ccc(C#N)c(C(F)(F)F)c1 [Example 293]	4.97	316	–	–	–	–
Cc1nn2c(C(C)C)c(C(=O)N[C@H]3CCc4ccccc43)cnc2c1-c1ccc(Cl)nc1 [Example 295]	4.21	63.1	–	–	–	–
Cc1nn2c(C(C)C)c(C(=O)N[C@H]3CCc4ccccc43)cnc2c1-c1cncnc1 [Example 296]	2.99	7940	–	–	–	–
Cc1nn2c(C(C)C)c(C(=O)N[C@H]3CCc4ccccc43)cnc2c1-c1cnn(C)c1 [Example 303]	3.13	794	–	–	–	–

SMILES	chromatographic logP [1]	EC50 (C. elegans Slo-1a) [nM]	EC50 [2] [µg/mL]	log P [1]	pE50 (C. elegans Slo-1a)	log P [1, 3]
COCc1c(C(=O)N[C@H]2CCc3ccccc32)cnc2c(-c3cccc(C(F)(F)F)c3)c(C)nn12 [Example 305]	4.52	63.1	–	–	–	–
CCc1c(C(=O)N[C@H]2CCc3ccccc32)cnc2c(-c3cccc(C(F)(F)F)c3)c(C)nn12 [Example 306]	4.86	50.1	–	–	–	–
Cc1nn2c(C(C)C)c(C(=O)N[C@H]3CCc4ccccc43)cnc2c1-c1cnn(CC(F)(F)F)c1 [Example 310]	–	–	–	3.81	8	–
Cc1nn2c(C(F)F)c(C(=O)N[C@H]3CCc4ccccc43)cnc2c1-c1cccc(C(F)(F)F)c1 [Example 311, (S)-7-(Difluoromethyl)-N-(2,3-dihydro-1H-inden-1-yl)-2-methyl-3-(3-(trifluoromethyl)-phenyl)-pyrazolo[1,5-a]pyrimidine-6-carboxamide]	4.36	200	–	–	–	–
Cc1nn2c(C(C)C)c(C(=O)N[C@H]3CCc4ccccc43)cnc2c1-c1cccc(N2CCOCC2)c1 [Example 316]	4.26	158	–	–	–	–
Cc1nn2c(C(C)C)c(C(=O)N[C@H]3CCc4ccccc43)cnc2c1-c1ccncc1 [Example 318]	1.84	1000	–	–	–	–
CCOc1cccc(-c2c(C)nn3c(C(C)C)c(C(=O)N[C@H]4CCc5ccccc54)cnc23)c1 [Example 322]	4.94	12.6	–	–	–	–
Cc1nn2c(C(C)C)c(C(=O)N[C@H]3CCc4ccccc43)cnc2c1-c1ccc(N2CCOCC2)cc1 [Example 326]	4.2	1260	–	–	–	–
Cc1nn2c(C(C)C)c(C(=O)N[C@H]3CCc4ccccc43)cnc2c1-c1cccc(-n2cccn2)c1 [Example 328]	4.4	39.8	–	–	–	–
COc1ccc(-c2c(C)nn3c(C(C)C)c(C(=O)N[C@H]4CCc5ccccc54)cnc23)cc1 [Example 333]	4.43	100	–	–	–	–
Cc1nn2c(C(C)C)c(C(=O)N[C@H]3CCc4ccccc43)cnc2c1-c1ccc(OC(F)F)cc1 [Example 335]	4.66	126	–	–	–	–
CCOc1ccc(-c2c(C)nn3c(C(C)C)c(C(=O)N[C@H]4CCc5ccccc54)cnc23)cc1 [Example 339]	4.87	2510	–	–	–	–
Cc1nn2c(C(C)C)c(C(=O)N[C@H]3CCCc4ccccc43)cnc2c1-c1cnn(CC(F)(F)F)c1 [Example 359]	–	–	–	4.11	7.9	–
Cc1nn2c(C(C)C)c(C(=O)N[C@H]3CCc4ccccc43)cnc2c1-c1cccc(C[S+](C)[O-])c1 (stereo partly drawn) [Example 380]	–	–	–	3.05	6	–
Cc1nn2c(C(C)C)c(C(=O)N[C@H]3CCOc4ccccc43)cnc2c1-c1cnn(CC(F)(F)F)c1 [Example 401]	–	–	–	–	7.9	3.57
Cc1nn2c(C3CC3)c(C(=O)N[C@H]3CCc4ccccc43)cnc2c1-c1cnn(CC(F)(F)F)c1 [Example 421]	–	–	–	–	8.1	3.17
Cc1nn2c(C3CC3)c(C(=O)N[C@H]3CCOc4ccccc43)cnc2c1-c1cnn(CC(F)(F)F)c1 [Example 468]	–	–	–	–	7.8	2.95
Cc1nn2c(CN(C)C)c(C(=O)N[C@H]3CCc4ccccc43)cnc2c1-c1cccc(Cl)c1Cl [Example 522]	–	–	–	–	7.8	2.08
Cc1nn2c(CN(C)C)c(C(=O)N[C@H]3CCOc4ccccc43)cnc2c1-c1cccc(Cl)c1Cl [Example 523]	–	–	–	–	8.0	2.17
CSCCN(C)c1c(C(=O)N[C@H]2CCOc3ccccc32)cnc2c(-c3cccc(Cl)c3Cl)c(C)nn12 [Example 529]	–	–	–	–	8.1	4.69
Cc1nn2c(N3CCOCC3)c(C(=O)N[C@H]3CCOc4ccccc43)cnc2c1-c1cccc(C(F)(F)F)c1F [Example 530]	–	–	–	–	9.0	3.99
Cc1nn2c(NC3CC3)c(C(=O)N[C@H]3CCOc4ccccc43)cnc2c1-c1cc(F)cc(F)c1 [Example 539]	–	–	–	–	6.8	4.46
Cc1nn2c(N(C)CCS(C)(=O)=O)c(C(=O)N[C@H]3CCOc4ccccc43)cnc2c1-c1cc(Cl)cc(Cl)c1 [Example 541]	–	–	–	–	8.0	3.29
Cc1nn2c(NC3CC3)c(C(=O)N[C@H]3CCOc4ccccc43)cnc2c1-c1cc(Cl)cc(Cl)c1 [Example 542]	–	–	–	–	6.5	5.59
Cc1nn2c(NC3CC3)c(C(=O)N[C@H]3CCOc4ccccc43)cnc2c1-c1cccc(Cl)c1Cl [Example 546]	–	–	–	–	8.2	4.32
Cc1nn2c(C3CC3)c(C(=O)N[C@H]3CCOc4ccccc43)cnc2c1-c1cc(F)cc(F)c1F [Example 557]	3.72	2	–	–	–	–
